Assay results published in paper PMC6222871, “Suppression of Hepatitis C Virus Genome Replication and Particle Production by a Novel Diacylglycerol Acyltransferases Inhibitor” (Molecules : A Journal of Synthetic Chemistry and Natural …, 2018).
pEC50, pIC50: −log10 of the molar value.

What was measured:
[1] = test system: HCV genotype 2a (Huh7.5-J6/JFH1); assay: microbe, parasite or virus in culture; conditions: Hepatitis C virus, read-out: EC50 on HCV genome replication
From the text: We previously synthesized and characterized twelve DGAT inhibitors with a different DGAT specificity. […] A922500, a commercially available DGAT-1-specific inhibitor was used as a positive control. In spite of a wealth of knowledge on an essential role of DGAT-1 in the HCV particle assembly and production, less attention has been paid to potential functions of DGATs in other steps of the viral life cycle. Therefore, we decided to examine effects of these twelve DGAT inhibitors on HCV particle production as well as RNA genome replication in parallel. For this purpose, we transfected Huh7.5 cells with in vitro-transcribed genotype 2a HCV RNAs (Huh7.5-J6/JFH1) and treated them with each DGAT inhibitor for 6 and 72 h at 10 μM. HCV genome replication as well as host GAPDH RNA levels was quantitated by a real-time RT-PCR analysis. For assessment of HCV particle production, we harvested and filtered the supernatant from Huh7.5-J6/JFH1 cells treated with DGAT inhibitors and incubated the supernatant with naïve huh7.5 cells for 72 h. Then, infectivity was measured by a real-time RT-PCR analysis.
Quantitative real-time RT-PCR analysis to measure levels of HCV RNA and GAPDH was conducted as previously described. The cDNA synthesis and reverse transcription of miR-122 were performed by using Taqman quantitative RT-PCR (qRT-PCR) analysis. Taqmanq RT-PCR components including TaqMan miR122 probe, endogenous control U6 probe, TaqMan® MicroRNA reverse transcription Kit and TaqMan® universal master mix II were purchased from Thermo Fisher Scientific (Waltham, MA, USA)
Huh7.5-J6/JFH-1 cells were seeded into 6-well plates at a density of 3 × 10^5 cells per well with DMEM containing 10% FBS. After 24 h, they are incubated with either DMSO, increasing concentrations of 10j for 3, 6, 12, 24, 48, and 72 h, or increasing concentrations of A922500 for 6, 12, 24, 48, and 72 h. Total RNAs were extracted from treated cells and virus-containing media were harvested at each time point. Naïve Huh7.5 cells were infected with these virus-containing media after concentration with centricons. Total RNAs were extracted from Huh7.5 cells infected with virus-containing media. qRT-PCR analysis was performed to measure effect of 10j on HCV replication and virus particle production.

[2] = test system: recombinant DGAT-1; parameters: method as in PMID 23242135; conditions: recombinant DGAT-1, [14C] oleoyl-CoA as acyl-donor; cited from earlier work
[3] = test system: JFH1-NS5A-GFP cells; assay: NS5A-GFP and Oil Red O imaging in JFH1-NS5A-GFP cells; assay type: cell-based, hepatitis C virus
Experimental: Based on previous results, we noticed that EC50 values required for inhibition of the HCV genome replication by 10j were around 1–2 μM ranges (Figure 2 and Table 3). However, IC50 value required for inhibition of the enzymatic DGAT activities in vitro by 10j was reported to be higher than 5 μM (Table 2 and Figure 6E). Based on these observations, we hypothesized that inhibition of DGATs by 10j may not play a direct role in suppression of the viral genome replication. To test this hypothesis, we decided to study effects of 10j on DGAT and the viral genome replication in a simultaneous manner. […] Then, the viral NS3 protein and LDs were visualized by using an anti-NS3 antibody and BODIPY, respectively. […] Significant reduction of LD was only seen after treatment of 10j higher than 5 μM. In order to confirm this observation, we decided to utilize another HCV-positive cell—JFH1-NS5A-GFP cells—which were infected with infectious HCV genotype 2a particles with a visually tractable NS5A due to the presence of in-frame-fused GFP protein with NS5A. TGs of these cells were stained with ORO for visualization in parallel. […]
Immunofluorescence analysis of Huh7.5-J6/JFH1 or Huh7.5-JFH1-5A-GFP cells in the presence of 10j was conducted as previously described. Fluorescence were examined and captured by Nikon confocal laser scanning microscopic system. LD content was quantified using the ImageJ program.

[4] = test system: Huh7.5 cells; assay: visualization of intracellular LD by BODIPY in Huh7.5 cells; assay type: cell-based; conditions: 20 μM, 72 h
Experimental: Huh7.5 cells were incubated in a 24-well plate on top of coverslip in the presence of either DMSO, 8 μM of 10j, or 20 μM of A922500 for 72 h. Then, Huh7.5 cells were fixed by using 4% paraformaldehyde for 15 min and stained with 0.001% BODIPY 493/503 D3922 (Invitrogen, Carlsbad, CA, USA) for 10 min. The coverslips were mounted onto slides using Prolong Gold anti-fade reagent with DAPI (Invitrogen, Carlsbad, CA, USA) Fluorescence were examined and captured by Nikon confocal laser scanning microscopic system. LD content was quantified using the ImageJ program.

[5] = test system: luciferase-linked genotype 2a HCV RNAs; assay: microbe, parasite or virus in culture; assay type: cell-based, hepatitis C virus; conditions: Hepatitis C virus, Huh7.5, luciferase-linked genotype 2a HCV RNA in Huh7.5 cells; read-out: EC50 (HCV replication)
Experimental: (§1) To order to study impacts of DGAT inhibitors on HCV genome replication independently of the particle production, we decided to examine effects of these twelve DGAT inhibitors on the levels of viral RNA genome and cell viability in parallel. […] Then, we treated them with an increasing concentration of each DGAT inhibitor. Then, luciferase and MTT-based cell viability assays were performed to determine EC50 and CC50 (cytotoxic concentration required to kill 50% of treated cells) values, respectively.
(§2) Cell viability was measured with EZ-CYTOX (10% tetrazolium salt; Dogen, Gyeonggi-do, Korea) as described previously. Anti-HCV replication analysis using a luciferase assay was conducted as previously described.

[6] = test system: HCV genotype 2a (Huh7.5-J6/JFH1); assay: HCV particle production: infectivity of supernatant on naive Huh7.5 cells by real-time RT-PCR; assay type: cell-based, hepatitis C virus; conditions: Hepatitis C virus, read-out: EC50 on HCV particle production
Experimental: A922500, a commercially available DGAT-1-specific inhibitor was used as a positive control [10]. […] Therefore, we decided to examine effects of these twelve DGAT inhibitors on HCV particle production as well as RNA genome replication in parallel. For this purpose, we transfected Huh7.5 cells with in vitro-transcribed genotype 2a HCV RNAs (Huh7.5-J6/JFH1) [16] and treated them with each DGAT inhibitor for 6 and 72 h at 10 μM. HCV genome replication as well as host GAPDH RNA levels was quantitated by a real-time RT-PCR analysis. For assessment of HCV particle production, we harvested and filtered the supernatant from Huh7.5-J6/JFH1 cells treated with DGAT inhibitors and incubated the supernatant with naïve huh7.5 cells for 72 h. Then, infectivity was measured by a real-time RT-PCR analysis.
Huh7.5-J6/JFH-1 cells were seeded into 6-well plates at a density of 3 × 10^5 cells per well with DMEM containing 10% FBS. […] Total RNAs were extracted from treated cells and virus-containing media were harvested at each time point. Naïve Huh7.5 cells were infected with these virus-containing media after concentration with centricons.

[7] = MTT-based cell viability assay (EZ-CYTOX); conditions: human
Experimental: as §1, §2

[8] = test system: Huh7.5 cells; assay: TG quantification assay in Huh7.5 cells; assay type: cell-based; conditions: 20 μM
Experimental: Cells were washed with cold PBS, suspended, and homogenized in 1 mL of 5% NP-40/ddH2O solution. Then, homogenized cells were slowly heated to 90 °C for 5 min or until the NP-40 becomes cloudy, then cooled down to room temperature. Previous step was repeated to solubilize all TG. Cells were centrifuged for 2 min at top speed using a microcentrifuge to remove any insoluble material. Samples were diluted 10-fold with ddH2O before proceeding with the assay. […] Samples were added with 50 μL of reaction mix into each well and incubated at room temperature for 60 min while protected from light. Fluorescence was measured by using a fluorometric reader with Ex/Em = 535/590 nm. The amount of TG from standard sample was calculated using the following equation: Ts=Corrected absorbance−(y−intercept)/slope The amount of intracellular TG was calculated using the following equation: Concentration=Ts/Sv*D where the Ts is the amount of TG from standard curve and Sv is the volume of sample added to sample wells and D is the sample dilution factor.

[9] = test system: HCV; parameters: method as in PMID 27788579; conditions: read-out: EC50 in vitro; cited from earlier work

O=C(Nc1ccccc1)Nc1ccc(-c2ccc(C(=O)[C@@H]3CCC[C@H]3C(=O)O)cc2)cc1 [A922500, reference compound]
pEC50 ([1]; 6 h): < 4.00
pEC50 ([1]; 12 h): < 4.00
pEC50 ([1]; 24 h): < 4.00
pEC50 ([1]; 48 h): < 4.00
pEC50 ([1]; 72 h): < 4.00
pIC50 [2]: 8.15
abundance of GFP-tagged NS5A proteins or ORO-stained LDs [3]: failed to induce any significant changes
increase in the level of LDs (BODIPY) [4]: 45%
pEC50 [5]: 4.29
pEC50 ([6]; Huh7.5, 6 h): 4.46
pEC50 ([6]; Huh7.5, 12 h): 4.12
pEC50 ([6]; Huh7.5, 24 h): 4.16
pEC50 ([6]; Huh7.5, 48 h): 4.37
pEC50 ([6]; Huh7.5, 72 h): 4.66
CC50 [7]: 71.9 µM
suppression of endogenous level of TG [8]: 25%

O=C(O)C[C@H]1CC[C@H](c2ccc(-c3ccc(Nc4ccc(C(F)(F)F)nc4)cn3)cc2)CC1 [pradigastat]
pEC50 [9]: 4.52
